Laboratory results: patent US8158362B2, “Methods of diagnosing susceptibility to myocardial infarction and screening for an LTA4H haplotype” (deCODE Genetics ehf., priority 2005, dated 2012)
“Also recorded” adds a separate entry of the source.

Assays:
C-reactive protein (CRP) = assay: Serum CRP, DG-031 crossover clinical trial incl. carry-over test; type: in vivo, human
Method: (§1) In the short term study, changes in levels of biomarkers that are associated with risk of MI were scored as evidence of changes in the risk of MI.
(§2) Patients (191 subjects) who met the study eligebility criteria were enrolled and randomized into 3 different dose-level groups: (1) 64 patients on 250 mg/day therapy with DG-031 (250 mg q.d.), vs placebo; (2) 64 patients on 500 mg/day therapy with DG-031 (250 mg b.i.d.) vs placebo; and (3) 63 patients on 750 mg/day therapy with DG-031 (250 mg t.i.d.) vs placebo. […] All patients received 3 tablets per day. Treatment periods, 4 weeks in duration each, were separated by a 2-week washout period. The placebo tablets were identical in shape, color, form and taste to the active tablets except that they contained no active drug ingredients. Treatment with DG-031 or placebo was in addition to the subject's standard care, including all medications and treatment plan as prescribed by the subject's cardiologist prior to enrollment. Due to early termination of 19 subjects (primarily related to unavailability due to travel), 11 were replaced prior to enrollment closure. Thus, a total of 191 subjects were enrolled, with 172 completing all 8 visits or 8 patients (4.4%) short of target.
All data were analyzed according to a pre-established analysis plan and by intention-to-treat. Hypotheses were tested at a two-sided nominal significance level of 0.05. Each arm of the study, as well as pooled sets (combining dose levels), was considered for the primary analysis. Each such set is a standard AB/BA cross-over design and in the primary analysis of efficacy, the levels of biomarkers of MI risk at the end of the treatment periods (visits 4 and 7) were used as primary response variables. The difference between DG-031 and placebo treatment was the primary outcome, assessed separately for each of the biomarkers. Treatment effect was tested using a two-sample t-test on the period differences for suitably transformed response variables, under an assumption of normality of the transformed data. We report treatment effect as one half of the observed mean differences in the two-sample t-test, with a 95% CI. No pre-tests for carry-over effect were performed as a part of the primary analysis. Tests for carry-over were done and are reported separately from results of primary analysis. As was prespecified for the primary analysis, a simple Bonferroni-adjustment based on 10 biomarkers for the primary objective for the pooled set of the two highest doses, was used to report the outcome of the primary objective. All p-values reported are nominal.
To cancel out potential seasonal effects, carry-over effects were also studied with two-sample t-tests that compare measurements of the AB (drug/placebo) group with the measurements of the BA (placebo/drug) group. To estimate the effect of the drug at visit 3 for the AB group, (v3−v2), with v3 and v2 denoting, respectively, measurements at visit 3 and visit 2, was used. Similarly (v4−v2) and (v5−v2) were used to estimate effects at visits 4 and 5. For estimating the effect at visit 6, [(v6−v2)+(v3−v2)] was used. Note that v6 from the BA group includes the drug effect after two weeks which cancels the drug effect at visit 3 from the AB group. Similarly, [(v7−v2)+(v4−v2)] was used to estimate the effect at visit 7. […]
(§3) Apart from measurements in plasma, LTB4 and MPO were also measured in whole blood preparations ex vivo following ionomycin-activation of leukocytes, using ELISA and mass spectrometry. […]

[1] = 750 mg/day dose; healthy volunteers and patients with asthma (Dahlen et al., Hamilton et al.); cited from earlier work
serum amyloid A = assay: Serum amyloid A (SAA), DG-031 crossover clinical trial incl. carry-over test; type: in vivo, human
Method: as §1
as §2, with “Due to early termination of 19 subjects (primarily related to unavailability due to travel), 11 were replaced prior to enrollment closure. Thus, a total of 191 subjects were enrolled, with 172 completing all 8 visits or 8 patients (4.4%) short of target.” left out
(§4) All data were analyzed according to a pre-established analysis plan and by intention-to-treat. […] The difference between DG-031 and placebo treatment was the primary outcome, assessed separately for each of the biomarkers. […]
as §3

urinary leukotriene E4 = assay: Urine LTE4, DG-031 crossover clinical trial; type: in vivo, human; settings: highest dosage of DG-031 (750 mg/day); nominal p=0.00002
Method: as §1
(§5) Patients (191 subjects) who met the study eligebility criteria were enrolled and randomized into 3 different dose-level groups: (1) 64 patients on 250 mg/day therapy with DG-031 (250 mg q.d.), vs placebo; (2) 64 patients on 500 mg/day therapy with DG-031 (250 mg b.i.d.) vs placebo; and (3) 63 patients on 750 mg/day therapy with DG-031 (250 mg t.i.d.) vs placebo. […] All patients received 3 tablets per day. Treatment periods, 4 weeks in duration each, were separated by a 2-week washout period. […]
as §4
(§6) Apart from measurements in plasma, LTB4 and MPO were also measured in whole blood preparations ex vivo following ionomycin-activation of leukocytes, using ELISA and mass spectrometry. […] On the log scale the adjustment was based on a linear model, with coefficients determined empirically at time of blind review. Several tertiary markers were also measured including: IL-6, IL-12p40, TNFα, MMP-9, sICAM, sVCAM, P-selectin, E-selectin, MCP-1 and oxidised LDL.

[2] = test system: myeloperoxidase (MPO) in whole blood; assay: MPO production in ionomycin-activated whole blood ex vivo, DG-031 crossover clinical trial; design: species or system human
Method: as §1
as §2, with “Due to early termination of 19 subjects (primarily related to unavailability due to travel), 11 were replaced prior to enrollment closure. Thus, a total of 191 subjects were enrolled, with 172 completing all 8 visits or 8 patients (4.4%) short of target.” left out
as §4, §3

Lp-PLA2 = assay: Lp-PLA2, DG-031 crossover clinical trial; type: in vivo, human
Method: as §1, §5, §4, §6

[3] = test system: IL-6, IL-12p40, TNFα, MMP-9, sVCAM, P-selectin, E-selectin, MCP-1 and oxidised LDL; assay: Other tertiary markers (IL-6, IL-12p40, TNFα, MMP-9, sVCAM, P-selectin, E-selectin, MCP-1, oxidised LDL), DG-031 crossover clinical trial; type: in vivo, human; settings: DG-031 vs placebo
Method: as §1, §5, §4, §6

[4] = test system: LTB4 produced by ionomycin-activated neutrophils; assay: LTB4 production in ionomycin-activated whole blood/neutrophils ex vivo, DG-031 placebo-controlled crossover clinical trial; design: species or system human
Method: as §1, §2
All data were analyzed according to a pre-established analysis plan and by intention-to-treat. Hypotheses were tested at a two-sided nominal significance level of 0.05. Each arm of the study, as well as pooled sets (combining dose levels), was considered for the primary analysis. Each such set is a standard AB/BA cross-over design and in the primary analysis of efficacy, the levels of biomarkers of MI risk at the end of the treatment periods (visits 4 and 7) were used as primary response variables. The difference between DG-031 and placebo treatment was the primary outcome, assessed separately for each of the biomarkers. […]
as §3

[5] = Safety and adverse events, DG-031 crossover clinical trial; type: in vivo, human
From the text: All study participants lived in the Reykjavik metropolitan area or its neighboring townships. All study participants were followed by the designated cardiologists at the University Hospital of Iceland, at their outpatient or private clinics, and all subjects had participated in a study on the genetics of MI. After the subject had given informed consent, a medical and medication history was completed, including co-morbidities, concomitant medications and specific details about the subject's cardiovascular history, including current status. All study participants were fasting and had not taken their medications prior to the study visit. Cardiologists examined the patients at all 8 visits and completed the case report forms. All blood was collected and processed immediately after sampling. All blood specimens used for the biomarker studies were processed within 2 hours of blood sampling.
as §2

[6] = differences between visit 2 and 5, 500 and 750 mg/day vs placebo

## O=C(O)[C@@H](c1ccc(OCc2ccc3ccccc3n2)cc1)C1CCCC1 [DG-031, (R)-(+)-alpha-cyclopentyl-4-(2-quinolinylmethoxy)-Benzeneacetic acid]
C-reactive protein (CRP); differences between visit 2 and 5, 500 and 750 mg/day vs placebo, p=0.017
  carry-over / persistent effect after discontinuation, CRP: evidence of a persistent effect; also recorded: marked carry over effects were observed; also recorded: seems to persists until visit 7
C-reactive protein (CRP); short term study, LT inhibitor added to statin therapy
  further CRP reduction in subjects already on statin therapy: 20-30%
C-reactive protein (CRP); summary of the clinical trial
  reduction of serum levels of CRP: approximately 25%
C-reactive protein (CRP); visit 5 (after 2-week washout), two higher doses, p=0.017
  reduction of CRP: about 25%
C-reactive protein (CRP); visits 3 (2 weeks on therapy) and 4 (4 weeks on therapy), two higher doses
  level of CRP during treatment: dropped at visits 3 and 4, but not significantly
[1]
  tolerability in previous phase I-III human studies: well tolerated
Serum amyloid A; differences between visit 2 and 5, 500 and 750 mg/day vs placebo, p=0.051
  carry-over / persistent effect after discontinuation, SAA: evidence of a persistent effect
Serum amyloid A; summary of the clinical trial
  reduction of serum levels of SAA: approximately 25%
Urinary leukotriene E4
  increase in urine levels of LTE4: 27%
[2]; 750 mg/day DG-031 vs placebo, nominal p=0.023
  maximum reduction in MPO production (whole blood): 13%
[2]; [6]
  carry-over effect from treatment phase to placebo phase, MPO: No carry over effects were observed
Lp-PLA2; 2 lower doses (250 mg/day and 500 mg/day)
  effect on Lp-PLA2: not significant
Lp-PLA2; highest dose of DG-031 (750 mg/day), nominal p=0.0056
  increase in Lp-PLA2: 9%
[3]
  effect on other tertiary markers: no effects were observed
[4]; 750 mg/day DG-031 vs placebo, 4-week treatment, MI patients carrying at-risk FLAP/LTA4 hydrolase haplotypes, nominal p=0.0026
  maximum reduction in LTB4 production by ionomycin-activated neutrophils ex vivo: 26%
[4]; [6]
  carry-over effect from treatment phase to placebo phase, LTB4: No carry over effects were observed
[4]; pooled set of 500 mg and 750 mg arms, nominal p=0.0042, significant after correction for multiple testing
  levels of LTB4 produced by ionomycin-activated neutrophils ex vivo (primary efficacy endpoint): reduces levels of LTB4
[5]; active drug (any dose) vs none on placebo, p=0.032
  dizziness, number of patients reporting: 6 patients
[5]; active drug vs placebo
  liver transaminases: no difference was detected
[5]; between treatment groups or dose arms
  serious adverse events: no difference in serious adverse events
[5]; clinical trial, 250-750 mg/day
  overall safety and tolerability: safe and well tolerated
